From the supplement of paper PMC11451515

Assays:
SEM cells [1] = assay: AUC of viability dose-response curve (% viability x log10 dose units); higher = less sensitive; details: 48 h
Procedure, shortened: (§1)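 Seeding of medium-adapted leukemia cells was at 500 or 1000 cells/well in 1536-well plates, followed by 48 h at 37°C with library compounds in DMSO at 11 threefold doses from 47 μM to 0.79 nM. CellTiter-Glo One luminescence was normalised per plate to DMSO and cell-free wells and fitted as a four-parameter log-logistic function of log10 dose. Area under the curve was integrated by trapezoidal rule, with curves exceeding full viability scaled and curves failing quality control removed.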

NOMO1 = assay: as above; details: 48 h
Procedure, shortened: as §1

P12-Ichikawa [2] = assay: as above; details: 48 h
Procedure, shortened: as §1

SEM cells [3] = assay: cell viability relative to DMSO control; higher = less cytotoxic; details: 48 h
Procedure, shortened: (§2)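 NOMO1, SEM and P12-Ichikawa leukemia cells spent at least four passages adapting to each medium before use. They were seeded at 500 cells/well (NOMO1, SEM) or 1000 cells/well (P12-Ichikawa) in 5 μl in 1536-well plates and pin-dosed with library compounds in DMSO at 11 threefold steps from 47 μM down to 0.79 nM. After 48 h at 37°C, CellTiter-Glo One luminescence was read. Viability is reported as a percentage of the DMSO wells on each plate, with cell-free wells as background.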

P12-Ichikawa [4] = assay: as above; details: HPLM + 10% dialyzed FBS, 48 h
Procedure, shortened: as §2

[5] = RPMI 5 mM glucose + 10% dialyzed FBS
[6] = HPLM + 10% dialyzed FBS, 0.000781 µM
[7] = HPLM + 10% dialyzed FBS, 0.00234 µM
[8] = HPLM + 10% dialyzed FBS, 0.00702 µM
[9] = HPLM + 10% dialyzed FBS, 0.0211 µM
[10] = HPLM + 10% dialyzed FBS, 0.0632 µM
[11] = HPLM + 10% dialyzed FBS, 0.19 µM
[12] = HPLM + 10% dialyzed FBS, 0.569 µM
[13] = HPLM + 10% dialyzed FBS, 1.71 µM
[14] = HPLM + 10% dialyzed FBS, 5.12 µM
[15] = HPLM + 10% dialyzed FBS, 15.4 µM
[16] = HPLM + 10% dialyzed FBS, 46.1 µM
[17] = RPMI 5 mM glucose + 10% dialyzed FBS, 0.000781 µM
[18] = RPMI 5 mM glucose + 10% dialyzed FBS, 0.00234 µM
[19] = RPMI 5 mM glucose + 10% dialyzed FBS, 0.00702 µM
[20] = RPMI 5 mM glucose + 10% dialyzed FBS, 0.0211 µM
[21] = RPMI 5 mM glucose + 10% dialyzed FBS, 0.0632 µM
[22] = RPMI 5 mM glucose + 10% dialyzed FBS, 0.19 µM
[23] = RPMI 5 mM glucose + 10% dialyzed FBS, 0.569 µM
[24] = RPMI 5 mM glucose + 10% dialyzed FBS, 1.71 µM
[25] = RPMI 5 mM glucose + 10% dialyzed FBS, 5.12 µM
[26] = RPMI 5 mM glucose + 10% dialyzed FBS, 15.4 µM
[27] = RPMI 5 mM glucose + 10% dialyzed FBS, 46.1 µM

Row | Compound | AUC of viability dose-response curve (SEM cells [1]; HPLM + 10% dialyzed FBS) | AUC of viability dose-response curve (SEM cells [1]; RPMI 5 mM glucose + 10% FBS) | AUC of viability dose-response curve (SEM cells [1]; [5]) | AUC of viability dose-response curve (NOMO1; HPLM + 10% dialyzed FBS) | AUC of viability dose-response curve (NOMO1; RPMI 5 mM glucose + 10% FBS) | AUC of viability dose-response curve (NOMO1; [5]) | AUC of viability dose-response curve (P12-Ichikawa [2]; HPLM + 10% dialyzed FBS) | AUC of viability dose-response curve (P12-Ichikawa [2]; RPMI 5 mM glucose + 10% FBS) | AUC of viability dose-response curve (P12-Ichikawa [2]; [5]) | cell viability (SEM cells [3]; [6]) [%] | cell viability (SEM cells [3]; [7]) [%] | cell viability (SEM cells [3]; [8]) [%] | cell viability (SEM cells [3]; [9]) [%] | cell viability (SEM cells [3]; [10]) [%] | cell viability (SEM cells [3]; [11]) [%] | cell viability (SEM cells [3]; [12]) [%] | cell viability (SEM cells [3]; [13]) [%] | cell viability (SEM cells [3]; [14]) [%] | cell viability (SEM cells [3]; [15]) [%] | cell viability (SEM cells [3]; [16]) [%] | further results
1 | CC(=O)NCCC(=O)N[C@@H](CCC(N)=O)C(=O)N[C@@H](CO)C(=O)N[C@@H](CCC(N)=O)C(=O)N[C@@H](CCC(N)=O)C(=O)N[C@H](C(=O)N[C@@H](Cc1ccccc1)C(=O)N[C@]1(C)CCCCCC/C=C\CCC[C@@](C)(C(=O)N[C@@H](CCC(N)=O)C(=O)N[C@@H](CC(N)=O)C(N)=O)NC(=O)[C@H](CC(C)C)NC(=O)[C@H](CC(C)C)NC(=O)[C@@H](CCCNC(=N)N)NC(=O)[C@H](Cc2c[nH]c3ccccc23)NC(=O)[C@H](CC(C)C)NC(=O)[C@H](CC(N)=O)NC1=O)[C@H](C)O | 376 | 321 | 346 | 456 | 451 | 426 | 461 | 460 | 437 |  |  |  |  |  |  |  |  |  |  |  | 
2 | CC(/C=C1\SC(=S)N(CC(=O)O)C1=O)=C\c1ccccc1 | 471 | 420 | 476 | 452 | 454 | 472 | 461 | 440 | 457 |  |  |  |  |  |  |  |  |  |  |  | 
3 | C[C@H]1CC2C3CCC/4=C/C(=O)/C=C\[C@]4(C)[C@@]3(F)[C@@H](O)C[C@]2(C)[C@@]1(O)C(=O)CO (some centres not stated) | 372 | 356 | 348 | 420 | 450 | 466 | 374 | 342 | 330 |  |  |  |  |  |  |  |  |  |  |  | 
4 | O=C(O)COCCN1CCN(C(c2ccccc2)c2ccc(Cl)cc2)CC1 (configuration not stated) | 465 | 453 | 469 | 463 | 459 | 451 | 461 | 461 | 455 | 126 | 125 | 117 | 130 | 140 | 132 | 128 | 123 | 111 | 119 | 122 | cell viability (SEM cells [3]; RPMI 5 mM glucose + 10% FBS, 0.000781 µM): 117%; cell viability (SEM cells [3]; RPMI 5 mM glucose + 10% FBS, 0.00234 µM): 118%; cell viability (SEM cells [3]; RPMI 5 mM glucose + 10% FBS, 0.00702 µM): 113%; cell viability (SEM cells [3]; RPMI 5 mM glucose + 10% FBS, 0.0211 µM): 108%; cell viability (SEM cells [3]; RPMI 5 mM glucose + 10% FBS, 0.0632 µM): 116%; cell viability (SEM cells [3]; RPMI 5 mM glucose + 10% FBS, 0.19 µM): 95.4%; cell viability (SEM cells [3]; RPMI 5 mM glucose + 10% FBS, 0.569 µM): 119%; cell viability (SEM cells [3]; RPMI 5 mM glucose + 10% FBS, 1.71 µM): 91%; cell viability (SEM cells [3]; RPMI 5 mM glucose + 10% FBS, 5.12 µM): 113%; cell viability (SEM cells [3]; RPMI 5 mM glucose + 10% FBS, 15.4 µM): 112%; cell viability (SEM cells [3]; RPMI 5 mM glucose + 10% FBS, 46.1 µM): 102%
5 | N[S+](=O)([O-])NCCNc1nonc1/C(=N/O)Nc1ccc(F)c(Br)c1 | 435 | 375 | 414 | 353 | 373 | 411 | 354 | 389 | 401 |  |  |  |  |  |  |  |  |  |  |  | 
6 | CC(C)n1cnc2c(NCCCCCCNC(=O)OC(C)(C)C)nc(NCCO)nc21 | 453 | 462 | 454 | 443 | 455 | 469 | 464 | 449 | 449 |  |  |  |  |  |  |  |  |  |  |  | 
7 | Cc1cccc(CN2CCN(C(c3ccccc3)c3ccc(Cl)cc3)CC2)c1 (configuration not stated) | 436 | 444 | 443 | 464 | 451 | 460 | 460 | 429 | 456 |  |  |  |  |  |  |  |  |  |  |  | cell viability (SEM cells [3]; [17]): 144%; cell viability (SEM cells [3]; [18]): 121%; cell viability (SEM cells [3]; [19]): 122%; cell viability (SEM cells [3]; [20]): 130%; cell viability (SEM cells [3]; [21]): 45.3%; cell viability (SEM cells [3]; [22]): 104%; cell viability (SEM cells [3]; [23]): 135%; cell viability (SEM cells [3]; [24]): 126%; cell viability (SEM cells [3]; [25]): 82.2%; cell viability (SEM cells [3]; [26]): 121%; cell viability (SEM cells [3]; [27]): 113%
8 | CCO[C@@H]1OC(=O)C[C@@H]1NC(=O)[C@@H]1CCCN1C(=O)[C@@H](NC(=O)c1ccc(N)c(Cl)c1)C(C)(C)C | 453 | 477 | 446 | 328 | 305 | 318 | 345 | 356 | 374 | 106 | 121 | 124 | 109 | 145 | 138 | 119 | 150 | 151 | 142 | 111 | cell viability (SEM cells [3]; [17]): 103%; cell viability (SEM cells [3]; [18]): 126%; cell viability (SEM cells [3]; [19]): 125%; cell viability (SEM cells [3]; [20]): 115%; cell viability (SEM cells [3]; [21]): 140%; cell viability (SEM cells [3]; [22]): 158%; cell viability (SEM cells [3]; [23]): 146%; cell viability (SEM cells [3]; [24]): 156%; cell viability (SEM cells [3]; [25]): 126%; cell viability (SEM cells [3]; [26]): 146%; cell viability (SEM cells [3]; [27]): 125%
9 | CCCCCCOC(=O)/N=C(/N)c1ccc(NCc2nc3cc(C(=O)N(CCC(=O)OCC)c4ccccn4)ccc3n2C)cc1 | 448 | 468 | 475 | 443 | 449 | 449 | 475 | 465 | 467 | 112 | 113 | 124 | 125 | 123 | 125 | 129 | 134 | 145 | 137 | 125 | cell viability (P12-Ichikawa [4]; 0.000781 µM): 114%; cell viability (P12-Ichikawa [4]; 0.00234 µM): 130%; cell viability (P12-Ichikawa [4]; 0.00702 µM): 122%; cell viability (P12-Ichikawa [4]; 0.0211 µM): 131%; cell viability (P12-Ichikawa [4]; 0.0632 µM): 109%; cell viability (P12-Ichikawa [4]; 0.19 µM): 138%; cell viability (P12-Ichikawa [4]; 0.569 µM): 138%; cell viability (P12-Ichikawa [4]; 1.71 µM): 125%; cell viability (P12-Ichikawa [4]; 5.12 µM): 145%; cell viability (P12-Ichikawa [4]; 15.4 µM): 121%; cell viability (P12-Ichikawa [4]; 46.1 µM): 106%
10 | O=C(CCN1CCN(C(=O)OCc2cc(Cl)cc(Cl)c2)CC1)c1ccc2[nH]c(=O)oc2c1 | 472 | 465 | 469 | 470 | 431 | 448 | 466 | 454 | 459 |  |  |  |  |  |  |  |  |  |  |  | 
